# Measurements taken from patent US9474790B2, “Stable, protracted GLP-1/glucagon receptor co-agonists for medical use” (Novo Nordisk A/S, priority 2013, dated 2016).
# Numbered stars: 1 amine (or outer) side, 2 acyl side, 3 side chain; on linkers, the order of the positions; unused ones are H or OH. Bridge positions count the residues as written; N and C are the ends. Square brackets hold non-standard residues; d marks the D form. Side chains are listed from the residue outwards. Peptide text beside a SMILES is read from it. I, II: the chains in the order shown. * marks the point of attachment. C18 diacid = O=C(O)CCCCCCCCCCCCCCCCC(=O)*; γGlu = O=C(O)[C@H](CCC(=O)[*:2])N[*:1]; Ac4c = NC1(C(=O)O)CCC1; AEEA = NCCOCCOCC(=O)O; Aib = CC(C)(N)C(=O)O
# Target: T1, human glucagon receptor (Homo sapiens, UniProt P47871)
# T1 construct: expressed in transfected cells; host or cells: BHK cells (parent BHK570, CRE luciferase clone BHK/KZ10-20-48), clone pLJ6'-4-25
# Experiment: Glucagon receptor binding, 125I-glucagon displacement SPA on isolated membranes
# Details: displacement of 125I-glucagon from membranes; read-out: IC50 GlucR
# Method: The purpose of this assay was to test the in vitro receptor binding activity (i.e. affinity) of the glucagon derivatives of the invention. The receptor binding activity is a measure of affinity of a derivative for the human glucagon receptor.
# The receptor binding of each compound to the human glucagon receptor was measured in a displacement binding assay. In this type of assay a labelled ligand (in this case 125I-glucagon) is bound to the receptor. Each derivative was added in a series of concentrations to isolated membranes containing the human glucagon receptor and displacement of the labelled ligand is monitored. The receptor binding was reported as the concentration at which half of the labelled ligand is displaced from the receptor, the IC50 value.
# In order to test the binding of the derivatives to albumin, the assay may be performed in a very low concentration of serum albumin (max. 0.001% final assay concentration) as well as in the presence of a higher concentration of serum albumin (0.2% final assay concentration). An increase of the IC50 value, in the presence of serum albumin indicates an affinity to serum albumin and represents a method to predict a protracted pharmacokinetic profile of the test substance in animal models.
# The following chemicals were used in the assay: DMEM w Glutamax (Gibco 61965-026), Pen/strep (Invitrogen 15140-122), G418 (Invitrogen 10131-027), Versene (Gibco 15040), 1 M Hepes (Gibco 15630), PBS (Invitrogen 14190-094), fetal calf serum (Invitrogen 16140-071), MgCl2 (Merck 1.05832.1000), EDTA (Invitrogen 15575-038), CaCl2 (Sigma, C5080), Tween 20 (Amresco 0850C335), ovalbumin (Sigma A5503), SPA particles (wheat germ agglutinin (WGA) SPA beads, Perkin Elmer RPNQ0001), [125I]-glucagon (produced in-house), OptiPlate™-96 (Packard 6005290).
# HME buffer consisted of 25 mM HEPES, 2 mM MgCl2 and 1 mM EDTA, and pH was adjusted to 7.4. Assay buffer consisted of 50 mM HEPES supplemented with 5 mM MgCl2, 1 mM CaCl2, 0.02% Tween 20 and 0.1% Ovalbumin, and pH was adjusted to 7.4.
# The cells used in this assay (clone BHK hGCGR A3*25) were BHK cells stable transfected with an expression plasmid containing the cDNA encoding the human glucagon receptor.
# The cells were grown at 5% CO2 in DMEM, 10% fetal calf serum, 1% Pen/Strep (Penicillin/Streptomycin) and 1.0 mg/ml of the selection marker G418. To make a membrane preparation the cells were grown to approximately 80% confluence. The cells were washed twice in phosphate-buffered saline and harvested. The cells were pelleted using a brief centrifugation and the cell pellet was kept on ice. Lyse the cells by adding approx. 5 ml HME buffer, mix by pipetting and snap freeze in liquid nitrogen. Thaw quickly and add HME buffer to 10 ml. The cell pellet was homogenised with an ULTRA-THURRAX dispersing instrument for 20-30 sec. The homogenate was centrifuged at 20.000×G, 4° C. for 10 min. The pellet was re-suspended (homogenised) in 1-2 ml HME buffer. The protein concentration was determined. The membranes were aliquoted and snap-frozen in liquid nitrogen and stored at minus 80° C.
# 1. For the receptor binding assay, 50 μl of the assay buffer was added to each well of an assay plate.
# 2. Test compounds were serially diluted to give the following concentrations: 8×10EE-7 M, 8×10EE-8 M, 8×10EE-9 M, 8×10EE-10 M, 8×10EE-11 M, 8×10EE-12 M and 8×10EE-13 M. Twenty-five μl were added to appropriate wells in the assay plate.
# 3. Cell membrane aliquots were thawed and diluted to their working concentration. Fifty μl were added to each well in the assay plate.
# 4. WGA SPA beads were suspended in assay buffer at 20 mg/ml. The suspension was diluted to 10 mg/ml in assay buffer just prior to addition to the assay plate. Fifty μl were added to each well in the assay plate.
# 5. The incubation was started by adding 25 μl of 480 pM solution of [125I]-glucagon to each well of the assay plate. A 25 μl aliquot was reserved for measuring total counts/well.
# 6. The assay plate was incubated for 2 h at 25° C.
# 7. […]
# T1 sequence (P47871 26-477): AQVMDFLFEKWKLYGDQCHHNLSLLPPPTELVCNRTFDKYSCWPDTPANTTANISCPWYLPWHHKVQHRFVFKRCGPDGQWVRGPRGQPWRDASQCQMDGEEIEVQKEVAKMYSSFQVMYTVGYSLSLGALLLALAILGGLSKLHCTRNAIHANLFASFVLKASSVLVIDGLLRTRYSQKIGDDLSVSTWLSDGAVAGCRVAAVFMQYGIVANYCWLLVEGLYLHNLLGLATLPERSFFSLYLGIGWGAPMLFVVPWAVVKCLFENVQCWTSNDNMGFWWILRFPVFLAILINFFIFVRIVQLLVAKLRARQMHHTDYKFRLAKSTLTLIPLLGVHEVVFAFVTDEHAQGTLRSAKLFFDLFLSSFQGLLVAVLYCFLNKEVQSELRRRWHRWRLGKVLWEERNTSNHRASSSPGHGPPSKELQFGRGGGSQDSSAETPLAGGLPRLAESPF
row,IC50 [nM],SMILES
1,0.5,"CC(C)C[C@H](NC(=O)[C@H](Cc1ccc(O)cc1)NC(=O)[C@H](CCCCN)NC(=O)[C@H](CO)NC(=O)[C@H](CC(C)C)NC(=O)[C@H](CC(=O)O)NC(=O)[C@H](CO)NC(=O)[C@@H](NC(=O)[C@H](Cc1ccccc1)NC(=O)[C@@H](NC(=O)CNC(=O)[C@H](Cc1c[nH]cn1)NC(=O)C(C)(C)NC(=O)[C@@H](N)Cc1c[nH]cn1)[C@@H](C)O)[C@@H](C)O)C(=O)N[C@@H](CCC(=O)O)C(=O)N[C@@H](CO)C(=O)N[C@@H](CCCNC(=N)N)C(=O)N[C@@H](CCCNC(=N)N)C(=O)N[C@@H](C)C(=O)N[C@@H](CCCNC(=N)N)C(=O)N[C@@H](CCC(=O)O)C(=O)N[C@@H](Cc1ccccc1)C(=O)N[C@H](C(=O)N[C@@H](CCC(N)=O)C(=O)N[C@@H](Cc1c[nH]c2ccccc12)C(=O)N[C@@H](CC(C)C)C(=O)N[C@@H](CC(C)C)C(=O)N[C@@H](CCCCNC(=O)CC[C@H](NC(=O)COCCOCCNC(=O)COCCOCCNC(=O)CC[C@H](NC(=O)CC[C@H](NC(=O)CCCCCCCCCCCCCCCCC(=O)O)C(=O)O)C(=O)O)C(=O)O)C(=O)N[C@H](C(N)=O)[C@@H](C)O)C(C)C [Example 30, N^ε28-[(4S)-4-carboxy-4-[[2-[2-[2-[[2-[2-[2-[[(4S)-4-carboxy-4-[[(4S)-4-carboxy-4-(17-carboxyheptadecanoylamino)butanoyl]amino]butanoyl]amino]ethoxy]ethoxy]acetyl]amino]ethoxy]ethoxy]acetyl]amino]butanoyl]-[Aib2,His3,Leu10,Glu15,Arg20,Glu21,Leu27,Lys28]-Glucagon amide] (H-H[Aib]HGTFTSDLSKYLESRRAREFVQWLLK([γGlu-AEEA-AEEA-γGlu-γGlu-C18 diacid])T-NH2; N-terminus assumed)"
2,2,"CC(C)C[C@H](NC(=O)[C@H](Cc1ccc(O)cc1)NC(=O)[C@H](CCCCN)NC(=O)[C@H](CO)NC(=O)[C@H](CC(C)C)NC(=O)[C@H](CC(=O)O)NC(=O)[C@H](CO)NC(=O)[C@@H](NC(=O)[C@H](Cc1ccccc1)NC(=O)[C@@H](NC(=O)CNC(=O)[C@H](Cc1c[nH]cn1)NC(=O)C(C)(C)NC(=O)[C@@H](N)Cc1c[nH]cn1)[C@@H](C)O)[C@@H](C)O)C(=O)N[C@@H](CCC(=O)O)C(=O)N[C@@H](CO)C(=O)N[C@@H](CCCNC(=N)N)C(=O)N[C@@H](CCCNC(=N)N)C(=O)N[C@@H](C)C(=O)N[C@@H](CCCNC(=N)N)C(=O)N[C@@H](CCC(=O)O)C(=O)N[C@@H](Cc1ccccc1)C(=O)N[C@H](C(=O)N[C@@H](CCC(N)=O)C(=O)N[C@@H](Cc1c[nH]c2ccccc12)C(=O)N[C@@H](CC(C)C)C(=O)N[C@@H](CC(C)C)C(=O)N[C@@H](CCCCNC(=O)CC[C@H](NC(=O)CC[C@H](NC(=O)COCCOCCNC(=O)COCCOCCNC(=O)CC[C@H](NC(=O)CCCCCCCCCCCCCCCCC(=O)O)C(=O)O)C(=O)O)C(=O)O)C(=O)N[C@H](C(N)=O)[C@@H](C)O)C(C)C [Example 33, N^ε28-[(4S)-4-carboxy-4-[[(4S)-4-carboxy-4-[[2-[2-[2-[[2-[2-[2-[[(4S)-4-carboxy-4-(17-carboxyheptadecanoylamino)butanoyl]amino]ethoxy]ethoxy]acetyl]amino]ethoxy]ethoxy]acetyl]amino]butanoyl]amino]butanoyl]-[Aib2,His3,Leu10,Glu15,Arg20,Glu21,Leu27,Lys28]-Glucagon amide] (H-H[Aib]HGTFTSDLSKYLESRRAREFVQWLLK([γGlu-γGlu-AEEA-AEEA-γGlu-C18 diacid])T-NH2; N-terminus assumed)"
3,0.2,"CC(C)C[C@H](NC(=O)[C@H](Cc1ccc(O)cc1)NC(=O)[C@H](CCCCN)NC(=O)[C@H](CO)NC(=O)[C@H](CC(C)C)NC(=O)[C@H](CC(=O)O)NC(=O)[C@H](CO)NC(=O)[C@@H](NC(=O)[C@H](Cc1ccccc1)NC(=O)[C@@H](NC(=O)CNC(=O)[C@H](Cc1c[nH]cn1)NC(=O)C(C)(C)NC(=O)[C@@H](N)Cc1c[nH]cn1)[C@@H](C)O)[C@@H](C)O)C(=O)N[C@@H](CCC(=O)O)C(=O)N[C@@H](CO)C(=O)N[C@@H](CCCCN)C(=O)N[C@@H](CCCNC(=N)N)C(=O)N[C@@H](C)C(=O)N[C@@H](CCCNC(=N)N)C(=O)N[C@@H](CCC(=O)O)C(=O)N[C@@H](Cc1ccccc1)C(=O)N[C@H](C(=O)N[C@@H](CCC(N)=O)C(=O)N[C@@H](Cc1c[nH]c2ccccc12)C(=O)N[C@@H](CC(C)C)C(=O)N[C@@H](CC(C)C)C(=O)N[C@@H](CCCCNC(=O)CC[C@H](NC(=O)CC[C@H](NC(=O)CC[C@H](NC(=O)CCCCCCCCCCCCCCCCC(=O)O)C(=O)O)C(=O)O)C(=O)O)C(=O)N[C@H](C(N)=O)[C@@H](C)O)C(C)C [Example 34, N^ε28-[(4S)-4-carboxy-4-[[(4S)-4-carboxy-4-[[(4S)-4-carboxy-4-(17-carboxyheptadecanoylamino)butanoyl]amino]butanoyl]amino]butanoyl]-[Aib2,His3,Leu10,Glu15,Lys17,Arg20,Glu21,Leu27,Lys28]-Glucagon amide] (H-H[Aib]HGTFTSDLSKYLESKRAREFVQWLLK([γGlu-γGlu-γGlu-C18 diacid])T-NH2; N-terminus assumed)"
4,0.7,"CC(C)C[C@H](NC(=O)[C@H](Cc1ccc(O)cc1)NC(=O)[C@H](CCCCN)NC(=O)[C@H](CO)NC(=O)[C@H](CC(C)C)NC(=O)[C@H](CC(=O)O)NC(=O)[C@H](CO)NC(=O)[C@@H](NC(=O)[C@H](Cc1ccccc1)NC(=O)[C@@H](NC(=O)CNC(=O)[C@H](Cc1c[nH]cn1)NC(=O)C1(NC(=O)[C@@H](N)Cc2c[nH]cn2)CCC1)[C@@H](C)O)[C@@H](C)O)C(=O)N[C@@H](CCC(=O)O)C(=O)N[C@@H](CO)C(=O)N[C@@H](CCCNC(=N)N)C(=O)N[C@@H](CCCNC(=N)N)C(=O)N[C@@H](C)C(=O)N[C@@H](CCC(N)=O)C(=O)N[C@@H](CC(=O)O)C(=O)N[C@@H](Cc1ccccc1)C(=O)N[C@H](C(=O)N[C@@H](CCC(N)=O)C(=O)N[C@@H](Cc1c[nH]c2ccccc12)C(=O)N[C@@H](CC(C)C)C(=O)N[C@@H](CC(C)C)C(=O)N[C@@H](CCCCNC(=O)CNC(=O)[C@H](CO)NC(=O)[C@H](CCC(=O)O)NC(=O)CNC(=O)[C@H](CO)NC(=O)CC[C@H](NC(=O)CC[C@H](NC(=O)CCCCCCCCCCCCCCCCC(=O)O)C(=O)O)C(=O)O)C(=O)N[C@H](C(N)=O)[C@@H](C)O)C(C)C [Example 35, N^ε28-[2-[[(2S)-2-[[(2S)-4-carboxy-2-[[2-[[(2S)-2-[[(4S)-4-carboxy-4-[[(4S)-4-carboxy-4-(17-carboxyheptadecanoylamino)butanoyl]amino]butanoyl]amino]-3-hydroxypropanoyl]amino]acetyl]amino]butanoyl]amino]-3-hydroxypropanoyl]amino]acetyl]-[Acb2,His3,Leu10,Glu15, Leu27,Lys28]-Glucagon amide] (I: H-H[Ac4c]HGTFTSDLSKYLESRRAQDFVQWLLKT-NH2 / II: {C18 diacid-γGlu-γGlu}-SGESG; amide I:28-II:C; N-terminus assumed)"
